This is an account of results in ChEMBL document CHEMBL1201862, “PubChem BioAssay data set” (2004).

For test [1], the target named is T1, Sentrin-specific protease 7 (Homo sapiens, UniProt Q9BQF6).
T1 sequence (Q9BQF6 whole entry): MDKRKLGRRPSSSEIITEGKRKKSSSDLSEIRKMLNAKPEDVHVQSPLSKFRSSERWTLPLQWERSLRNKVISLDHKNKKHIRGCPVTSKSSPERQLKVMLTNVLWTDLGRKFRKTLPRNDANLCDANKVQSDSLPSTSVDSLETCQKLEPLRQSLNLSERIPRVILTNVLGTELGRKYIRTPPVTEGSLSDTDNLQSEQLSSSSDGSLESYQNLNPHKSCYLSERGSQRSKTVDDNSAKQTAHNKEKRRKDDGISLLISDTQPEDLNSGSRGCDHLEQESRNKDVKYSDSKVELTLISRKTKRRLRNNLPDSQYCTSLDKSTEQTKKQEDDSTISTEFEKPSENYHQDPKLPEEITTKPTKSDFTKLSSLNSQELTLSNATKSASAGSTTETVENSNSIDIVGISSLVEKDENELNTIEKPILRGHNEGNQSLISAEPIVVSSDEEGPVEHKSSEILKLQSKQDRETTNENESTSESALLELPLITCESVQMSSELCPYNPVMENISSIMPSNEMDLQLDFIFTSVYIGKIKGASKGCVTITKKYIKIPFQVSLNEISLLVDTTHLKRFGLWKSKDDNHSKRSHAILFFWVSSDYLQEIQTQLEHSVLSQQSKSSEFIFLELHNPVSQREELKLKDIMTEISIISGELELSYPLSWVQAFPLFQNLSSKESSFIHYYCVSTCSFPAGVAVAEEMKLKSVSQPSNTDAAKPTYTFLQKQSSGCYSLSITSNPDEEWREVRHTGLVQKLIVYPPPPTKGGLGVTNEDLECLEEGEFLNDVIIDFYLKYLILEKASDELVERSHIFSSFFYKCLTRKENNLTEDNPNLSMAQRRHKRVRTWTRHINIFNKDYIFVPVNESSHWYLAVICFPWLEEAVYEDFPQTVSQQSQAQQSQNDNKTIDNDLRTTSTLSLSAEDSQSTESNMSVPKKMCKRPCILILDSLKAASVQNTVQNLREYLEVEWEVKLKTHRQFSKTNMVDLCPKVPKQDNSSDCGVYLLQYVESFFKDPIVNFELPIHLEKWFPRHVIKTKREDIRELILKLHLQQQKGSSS
Briefly: SENP7 protease inhibitors, SAR follow-up, biochemical, luminescence (AID 504497). The format is functional.

Another test deals with T2, Caspase-3 (Homo sapiens, UniProt P42574).
T2 sequence (P42574 whole entry): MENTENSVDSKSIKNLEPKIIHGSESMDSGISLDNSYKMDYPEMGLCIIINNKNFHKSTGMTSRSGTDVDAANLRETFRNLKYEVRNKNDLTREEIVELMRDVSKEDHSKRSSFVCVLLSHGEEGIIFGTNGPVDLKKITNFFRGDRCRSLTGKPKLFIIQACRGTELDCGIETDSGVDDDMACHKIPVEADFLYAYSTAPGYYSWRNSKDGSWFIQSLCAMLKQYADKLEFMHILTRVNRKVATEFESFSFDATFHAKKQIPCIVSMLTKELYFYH
Briefly: SAR Analysis of small molecule inhibitors of Sentrin-specific proteases (SENPs) using a Caspase-3 Selectivity assay. [Related pubchem assays (depositor defined):AID2540, AID2599, AID434973, AID489001]. The test is classed as functional.

Test [2] has as its target T3, Sentrin-specific protease 8 (Homo sapiens, UniProt Q96LD8).
T3 sequence (Q96LD8 whole entry): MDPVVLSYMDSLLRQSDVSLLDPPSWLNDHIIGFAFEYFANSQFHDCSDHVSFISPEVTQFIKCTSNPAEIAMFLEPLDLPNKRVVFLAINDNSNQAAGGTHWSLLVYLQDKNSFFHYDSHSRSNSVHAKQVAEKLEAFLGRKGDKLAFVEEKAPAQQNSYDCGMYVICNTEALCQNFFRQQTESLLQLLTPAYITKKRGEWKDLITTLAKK
Description: SENP8 protease inhibitors, SAR follow-up, biochemical, luminescence (AID 504501). The format is functional.

Test [3] addresses T4, Sentrin-specific protease 6 (Homo sapiens, UniProt Q9GZR1).
T4 sequence (Q9GZR1 whole entry): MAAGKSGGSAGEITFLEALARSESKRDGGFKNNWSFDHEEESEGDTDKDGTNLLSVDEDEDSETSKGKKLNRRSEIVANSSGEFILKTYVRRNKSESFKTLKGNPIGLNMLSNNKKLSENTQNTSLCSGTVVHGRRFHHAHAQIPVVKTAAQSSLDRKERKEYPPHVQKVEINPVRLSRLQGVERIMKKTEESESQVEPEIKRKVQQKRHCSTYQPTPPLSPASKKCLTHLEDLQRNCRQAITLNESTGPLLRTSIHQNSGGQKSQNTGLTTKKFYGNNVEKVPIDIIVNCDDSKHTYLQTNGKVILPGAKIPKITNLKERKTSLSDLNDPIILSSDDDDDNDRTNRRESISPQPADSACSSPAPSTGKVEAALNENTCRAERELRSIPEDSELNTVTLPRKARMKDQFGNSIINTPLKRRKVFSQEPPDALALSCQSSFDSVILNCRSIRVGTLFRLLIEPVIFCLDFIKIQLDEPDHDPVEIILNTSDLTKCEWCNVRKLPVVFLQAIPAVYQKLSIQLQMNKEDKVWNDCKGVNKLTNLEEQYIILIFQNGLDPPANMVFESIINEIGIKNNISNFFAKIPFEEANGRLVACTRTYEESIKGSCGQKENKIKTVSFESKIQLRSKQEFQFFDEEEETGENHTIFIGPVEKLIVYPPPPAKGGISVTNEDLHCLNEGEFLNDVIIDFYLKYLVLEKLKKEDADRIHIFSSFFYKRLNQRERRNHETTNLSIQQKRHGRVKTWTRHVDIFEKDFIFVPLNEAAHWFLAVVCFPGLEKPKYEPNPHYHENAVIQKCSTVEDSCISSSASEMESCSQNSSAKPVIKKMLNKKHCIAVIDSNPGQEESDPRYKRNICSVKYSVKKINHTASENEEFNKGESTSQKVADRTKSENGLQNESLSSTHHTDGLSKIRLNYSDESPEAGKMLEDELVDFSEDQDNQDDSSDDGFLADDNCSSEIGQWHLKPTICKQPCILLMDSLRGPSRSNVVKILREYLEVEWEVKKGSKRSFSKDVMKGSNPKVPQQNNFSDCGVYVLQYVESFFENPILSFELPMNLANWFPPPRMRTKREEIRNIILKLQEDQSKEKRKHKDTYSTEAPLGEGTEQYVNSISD
Briefly: SAR Analysis of small molecule inhibitors of Sentrin-specific protease 6 (SENP6) using a Luminescent assay. [Related pubchem assays (depositor defined):AID2582, AID2599]. The format is functional.

Another test addresses Genome polyprotein (dengue virus type 2, UniProt P29990). Description: Dengue-2 NS5 methyltransferase inhibitors, primary screen, biochemical, confirmation dose response (AID 588689). The test is classed as functional.
Test [4] concerns the target T5, Hepatocyte nuclear factor 4-alpha (Homo sapiens, UniProt P41235).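 Note: biochemical luminescence-based dose-response counterscreen measuring inhibition of HNF4 dimerization, run alongside a screen for blockers of ABHD5–perilipin-5 interaction; split luciferase complementation of HNF4 fusion proteins in cell lysate measuring dimerization.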
T5 sequence (P41235 whole entry): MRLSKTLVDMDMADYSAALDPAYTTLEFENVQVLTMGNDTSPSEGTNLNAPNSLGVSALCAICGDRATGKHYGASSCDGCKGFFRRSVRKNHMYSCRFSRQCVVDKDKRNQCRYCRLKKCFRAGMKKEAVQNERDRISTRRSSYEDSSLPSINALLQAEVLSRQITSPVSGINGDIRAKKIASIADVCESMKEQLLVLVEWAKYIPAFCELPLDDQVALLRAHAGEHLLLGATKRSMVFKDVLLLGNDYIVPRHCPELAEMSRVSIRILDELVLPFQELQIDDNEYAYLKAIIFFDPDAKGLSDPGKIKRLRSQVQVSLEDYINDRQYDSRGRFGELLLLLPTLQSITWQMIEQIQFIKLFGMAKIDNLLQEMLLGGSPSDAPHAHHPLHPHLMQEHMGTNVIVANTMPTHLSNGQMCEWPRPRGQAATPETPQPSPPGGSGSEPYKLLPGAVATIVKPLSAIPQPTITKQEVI
The format is functional, cell-based.

In the next test the target is Melanocortin receptor 4 (Homo sapiens, UniProt P32245). The test is classed as functional, cell-based.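 Note: Cell-based assay with luminescence read-out, confirmatory dose-response testing for agonist activity of biased ligands at MC4R; human U2OS cells with tagged receptor and beta-arrestin; potency of agonists that increase receptor coupling to beta-arrestin.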
Chain of Melanocortin receptor 4 (P32245 whole entry): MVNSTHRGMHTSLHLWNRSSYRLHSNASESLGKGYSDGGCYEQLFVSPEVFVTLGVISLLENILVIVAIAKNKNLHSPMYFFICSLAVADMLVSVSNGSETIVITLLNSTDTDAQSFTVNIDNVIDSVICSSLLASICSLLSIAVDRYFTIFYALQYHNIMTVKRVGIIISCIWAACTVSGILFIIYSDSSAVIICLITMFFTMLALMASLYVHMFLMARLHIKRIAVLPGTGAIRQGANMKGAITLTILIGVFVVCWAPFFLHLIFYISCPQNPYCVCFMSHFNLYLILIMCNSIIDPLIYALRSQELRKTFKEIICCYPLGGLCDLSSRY
Another test deals with Phospholipase A2 (Homo sapiens, UniProt P04054). The format is functional.
Chain of Phospholipase A2 (P04054 whole entry): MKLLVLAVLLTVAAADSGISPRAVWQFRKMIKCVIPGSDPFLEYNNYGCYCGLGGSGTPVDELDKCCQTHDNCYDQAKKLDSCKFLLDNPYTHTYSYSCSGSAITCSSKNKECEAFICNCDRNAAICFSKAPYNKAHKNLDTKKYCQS
Test [5] can be described thus: inhibitors of intracellular T. cruzi replication, confirmation, NIH3T3 host cells, beta-gal luminescence (AID 2044).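 Note: intracellular parasites grown in NIH/3T3 mouse fibroblasts as host cells; luminescent beta-galactosidase reporter signal from transgenic T. cruzi replicating inside host cells; inhibitors lower the luminescence signal.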 The format is functional, cell-based.
In another test the target is T6, Cysteine protease ATG4B (Homo sapiens, UniProt Q9Y4P1).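 Note: Fluorescence-based dose-response confirmation assay measuring inhibition of ATG4B activity.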
T6 sequence (Q9Y4P1 whole entry): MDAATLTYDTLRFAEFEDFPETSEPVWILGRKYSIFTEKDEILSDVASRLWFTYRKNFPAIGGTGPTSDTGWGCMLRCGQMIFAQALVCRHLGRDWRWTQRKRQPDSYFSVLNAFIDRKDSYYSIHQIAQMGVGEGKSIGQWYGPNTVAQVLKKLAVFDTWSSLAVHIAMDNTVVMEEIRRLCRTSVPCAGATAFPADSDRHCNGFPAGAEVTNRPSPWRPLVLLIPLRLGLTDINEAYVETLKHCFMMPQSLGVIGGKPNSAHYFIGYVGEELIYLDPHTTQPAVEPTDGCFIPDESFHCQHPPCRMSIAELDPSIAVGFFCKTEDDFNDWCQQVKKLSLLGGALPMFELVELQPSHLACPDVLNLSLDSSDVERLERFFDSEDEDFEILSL
The test is classed as functional.

Test [6] in a line: cytotoxicity toward NIH3T3 fibroblasts, dose response, counter-screen, cell-based, ATP luminescence, mouse fibroblasts (AID 2010).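 Note: cells exposed to compound for about 90 hours before reading.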 The format is functional.
In test [7] the test system is Streptococcus sp. 'group A'. Briefly: growth inhibition of control SK(-) GAS strain, dose response, counter-screen for streptokinase expression inhibitor project, luminescence, kanamycin, BacTiterGlo, confirmation (AID 1900). The test is classed as functional, organism-based. In general terms: A counterscreen serves to expose hits that act by an unwanted route or on another target.

Another test relates to Streptococcus. Briefly: Group A Streptococcus viability loss, dose response, counter-screen for streptokinase expression inhibitor project, luminescence, BacTiterGlo (AID 1915).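 Note: potency for reduction of bacterial viability or growth.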 The test is classed as functional, organism-based.
A further test deals with T7, Streptokinase A (Streptococcus pyogenes serotype M1, UniProt P10520).
T7 sequence (P10520 whole entry): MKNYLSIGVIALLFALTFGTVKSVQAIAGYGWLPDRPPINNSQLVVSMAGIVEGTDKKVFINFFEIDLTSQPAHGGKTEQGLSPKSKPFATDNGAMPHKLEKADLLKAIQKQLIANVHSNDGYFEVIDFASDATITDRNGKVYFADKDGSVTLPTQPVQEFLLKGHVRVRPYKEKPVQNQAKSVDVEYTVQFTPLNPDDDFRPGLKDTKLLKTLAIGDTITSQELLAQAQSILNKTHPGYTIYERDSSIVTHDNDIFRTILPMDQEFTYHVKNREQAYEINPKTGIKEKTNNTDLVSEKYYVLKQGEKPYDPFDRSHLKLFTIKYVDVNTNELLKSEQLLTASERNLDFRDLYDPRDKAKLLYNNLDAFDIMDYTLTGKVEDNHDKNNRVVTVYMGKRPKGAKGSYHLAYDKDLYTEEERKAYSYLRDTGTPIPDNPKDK
Briefly: S. pyogenes streptokinase expression inhibitors, potency, dose response, plasminogen activation absorbance, OD405 (AID 1914).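 Note: secreted streptokinase activity via plasminogen activation per viability signal from cell pellet.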 The test is classed as functional, Streptococcus pyogenes M1 GAS.

Where a name gives a salt, the structure may show the parent alone. Calls of active or inactive are those of the source.

Chain of Genome polyprotein (P29990 2492-3391 limits assumed): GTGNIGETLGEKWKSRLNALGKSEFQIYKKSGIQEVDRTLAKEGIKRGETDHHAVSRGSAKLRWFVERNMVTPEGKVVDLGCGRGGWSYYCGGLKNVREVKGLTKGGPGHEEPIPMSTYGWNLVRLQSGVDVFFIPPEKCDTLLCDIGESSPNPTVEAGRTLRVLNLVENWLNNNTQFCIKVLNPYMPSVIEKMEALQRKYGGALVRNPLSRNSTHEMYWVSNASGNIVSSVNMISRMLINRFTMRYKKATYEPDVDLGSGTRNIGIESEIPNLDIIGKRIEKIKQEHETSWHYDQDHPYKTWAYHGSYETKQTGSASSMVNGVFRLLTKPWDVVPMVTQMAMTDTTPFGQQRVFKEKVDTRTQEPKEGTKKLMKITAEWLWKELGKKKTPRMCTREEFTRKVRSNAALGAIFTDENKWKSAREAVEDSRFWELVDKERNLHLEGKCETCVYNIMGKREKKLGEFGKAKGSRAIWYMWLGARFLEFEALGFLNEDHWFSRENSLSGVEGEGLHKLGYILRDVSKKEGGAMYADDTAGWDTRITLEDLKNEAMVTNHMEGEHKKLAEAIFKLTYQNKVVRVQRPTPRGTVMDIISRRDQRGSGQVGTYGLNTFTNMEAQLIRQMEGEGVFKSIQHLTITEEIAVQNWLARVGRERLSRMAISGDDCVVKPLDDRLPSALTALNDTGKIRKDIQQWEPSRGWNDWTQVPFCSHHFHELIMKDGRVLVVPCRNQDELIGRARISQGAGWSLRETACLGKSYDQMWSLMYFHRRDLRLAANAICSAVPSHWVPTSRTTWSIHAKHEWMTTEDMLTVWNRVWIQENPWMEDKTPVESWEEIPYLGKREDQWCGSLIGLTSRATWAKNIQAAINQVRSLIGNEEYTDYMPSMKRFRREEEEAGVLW

On to `Cc1ccc2nc(NC(=O)c3cc(=O)c4cc(C)c(C)cc4o3)sc2c1`, for which the IC50 (in test [1]; on Caspase-3; in test [2]; in [3]) was > 99 µM (inactive) in each case.
Turning to `O=C1NC(=O)N(c2ccccc2F)C(=O)/C1=C/c1ccc(Oc2ccc([N+](=O)[O-])cn2)cc1`, the figures for the concentration for half-maximal inhibition (IC50) (at Genome polyprotein; in test [4]) were 56.1 µM (active) and 1.88 µM (active), respectively.
As to `NC(Cc1ccc(C(F)(F)F)cc1)c1csc(Nc2nccc(C(F)(F)F)n2)n1` (centres undefined), on Melanocortin receptor 4, the EC50 is > 89.2 µM (inactive).
As for `CC(C)CC(=O)Nc1ccc(-c2nc3cc(Cl)ccc3s2)cc1`, the IC50 in test [1] was 82.7 µM (active); at Caspase-3, > 99 µM (inactive); in test [2], > 99 µM (inactive); in test [3], > 99 µM (inactive).
For `O=S(=O)(c1ccc(F)cc1)c1nc(-c2ccccc2F)oc1N1CCCCC1`, the IC50 on Phospholipase A2 is 12.3 µM (active); on Cysteine protease ATG4B, 19.1 µM (active). For the same molecule, the half-maximal effective concentration (EC50) in test [5] was 1.87 µM (active); in test [6], > 30 µM (not active).
As for `Nc1ccc(-c2noc(/C=C/c3ccccc3)n2)cc1[N+](=O)[O-]`, the IC50 (in test [1]; at Caspase-3; in test [2]; in test [3]) was > 99 µM (inactive) throughout.
On to `CC(C)c1ccc(NC2CCCN(C(=O)c3cnn(C(C)C)c3)C2)cc1` (centres undefined), for which the IC50 on Phospholipase A2 is 6.21 µM (active); at Cysteine protease ATG4B, 9.04 µM (active).
Regarding `CN(C)CCOc1ccc(/C(=C(/CCCl)c2ccccc2)c2ccccc2)cc1` [TOREMIFENE CITRATE], the EC50 in [7] is 5.82 µM (active); in test [5] it was 28.4 µM (active); in [6], > 60 µM (not active); in the test with Streptococcus, 8.17 µM (active); on Streptokinase A, 25.9 µM (active). Moreover, the half-maximal inhibitory concentration (IC50) in test [4] is 7.87 µM (active).
Turning to `O=C(NC1CCCCC1)C(c1ccccc1F)n1c(=O)c(-c2ccco2)nc2ccccc21` (centres undefined), the half-maximal inhibitory concentration (IC50) in test [4] is 1.84 µM (active).
For `Cc1ccc(NC(=O)c2ncn(CCCN3CCN(Cc4cccc5ccccc45)CC3)n2)cc1C`, on Melanocortin receptor 4, the EC50 was > 89.2 µM (inactive).
As to `Fc1cc(F)cc(-c2noc(/C=C/c3ccccc3Cl)n2)c1`, the IC50 (in [1]; on Caspase-3; in test [2]; in [3]) was > 99 µM (inactive) throughout.
Take `Cc1cccnc1C(NC(=O)C1CCN(CCOc2ccc(Cl)cc2Cl)CC1)c1ccc(Cl)cc1` (centres undefined): the EC50 at Melanocortin receptor 4 is > 89.2 µM (inactive).

What is called IC50 is the concentration needed to halve the response being measured. As usually defined, the EC50 is the midpoint of the concentration-response curve.
